This is an account of results in patent US20160038532A1, “Treatment of Multiple Sclerosis With Combination of Laquinimod and Glatiramer Acetate” (TEVA PHARMACEUTICAL INDUSTRIES, LTD., priority 2011, published 2016).

Marks after values point to notes of the source that are not given here. Some results are limits rather than exact numbers.

The subject of one data set is Multiple Sclerosis. Particulars: two phase III trials; cited from earlier work.
The next data set relates to MOG-induced EAE. Briefly: MOG-induced EAE, lower doses of laquinimod with GA-blocking (Example 2.2). It is filed as in vivo, C57B1/6 mice. As for the experimental part:
MOG is a member of the immunoglobulin superfamily expressed exclusively in CNS myelin. It is one of the most encephalitogenic proteins and is widely used to induce EAE in different rodent strains. In C57BL/6 mice, immunization with the MOG peptide pMOG35-55 in CFA induces chronic progressive EAE.
24 mg MOG was diluted in 8 ml PBS (3 mg/ml, stock solution). Groups 1, 3 and 5: 3.5 ml of stock solution was diluted 1:1 with PBS. […] 4.5 ml of MOG stock solution was added to this solution.
The high dose LAQ (5 mg/10 ml/kg) solution (40 mg in 80 ml DDW) was prepared once weekly and stored at room temperature. For the dose of 2.5 mg/kg LAQ, 25 ml of this solution were added to 25 ml DDW. For the dose 1 mg/kg 5 ml of stock solution (high dose) were added to 20 ml DDW. The compound was administered by gavage once daily during the whole experiment (30 days) at a volume of 0.2 ml/mouse.
The mice were observed daily from the 9th day post-EAE induction (first injection of MOG) and the EAE clinical signs were scored according to the grades described in the 2 above.

The conditions of data set [1]: in vivo; cited from earlier work.
Another data set relates to multiple sclerosis (MS). Particulars: daily subcutaneous injections, 20 mg/injection; cited from earlier work.
[2] abbreviates: laquinimod 2.5 mg/kg/day gavage, alone or + GA-blocking 12.5 mg/kg day 0.
Where [3] appears, read: laquinimod 5 mg/kg/day gavage, alone or + GA-blocking 12.5 mg/kg day 0.
Where [4] appears, read: GA-blocking 12.5 mg/kg in inoculum day 0.

A word on the inhibition: it is the share of the control response that was lost under treatment. With `CCN(C(=O)c1c(O)c2c(Cl)cccc2n(C)c1=O)c1ccccc1` [laquinimod], the “safety and tolerability profile” value in the data set on Multiple Sclerosis was “favorable safety and tolerability profile”. In the data set with MOG-induced EAE (Mus musculus, po, 0 h, laquinimod 2.5 mg/kg/day gavage, alone or + GA-blocking 12.5 mg/kg day 0, read-out: % Inhibition compared to control (GMS)), the inhibition at 2.5 mg/kg came out at 53.7%. Besides, the inhibition at 5 mg/kg in the data set with MOG-induced EAE (Mus musculus, po, 0 h, laquinimod 5 mg/kg/day gavage, alone or + GA-blocking 12.5 mg/kg day 0, read-out: % Inhibition compared to control (GMS)) was no more than 68%. Also, in the data set with MOG-induced EAE (setting [2]), the “Group Mean Score” value was 1.50**, the Incidence is given as 13/15, the “Mean Disease Duration” value is listed as 10.2*** days and the “Mean Maximal Score” value is on record as 3.17**. In the data set on MOG-induced EAE (setting [2]), the “Mean Onset” value was 18.9*** days and the Mortality is given as 1/15. In the data set on MOG-induced EAE (setting [3]), the “% inhibition compared to Control (GMS)” value stood at 68.2%, the “Group Mean Score” value is recorded as 1.03***, the Incidence is 12/14 and the “Mean Disease Duration” value is given as 8.6*** days. For the same compound, in the data set on MOG-induced EAE (setting [3]), the “Mean Maximal Score” value is given as 2.89**, the “Mean Onset” value is given as 18.1*** days and the Mortality was 0/14. In addition, the oral bioavailability result in data set [1] is given as “high oral bioavailability”.

As to “L-glutamic acid polymer with L-alanine, L-lysine and L-tyrosine, acetate (salt) [GA]”, in the data set on MOG-induced EAE (setting [4]), the “% inhibition compared to Control (GMS)” value worked out at 77.5%, the “Group Mean Score” value is reported as 0.73***, the Incidence is reported as 11/14 and the “Mean Disease Duration” value was 7.1*** days. In the data set on MOG-induced EAE (setting [4]), the “Mean Maximal Score” value is recorded as 2.18*** and the “Mean Onset” value was 18.7*** days. For the same compound, in the data set with multiple sclerosis (MS), the “effect on relapse rates, progression of disability, new MRI lesions” value is “reduce relapse rates”.
